{"source": "ChEMBL document CHEMBL5523766", "about": "(J Med Chem, 2024)", "key": {"ATR/ATRIP": {"molecular_target": "ATR/ATRIP (Homo sapiens, UniProt Q13535)", "sequence (Q13535 whole entry)": "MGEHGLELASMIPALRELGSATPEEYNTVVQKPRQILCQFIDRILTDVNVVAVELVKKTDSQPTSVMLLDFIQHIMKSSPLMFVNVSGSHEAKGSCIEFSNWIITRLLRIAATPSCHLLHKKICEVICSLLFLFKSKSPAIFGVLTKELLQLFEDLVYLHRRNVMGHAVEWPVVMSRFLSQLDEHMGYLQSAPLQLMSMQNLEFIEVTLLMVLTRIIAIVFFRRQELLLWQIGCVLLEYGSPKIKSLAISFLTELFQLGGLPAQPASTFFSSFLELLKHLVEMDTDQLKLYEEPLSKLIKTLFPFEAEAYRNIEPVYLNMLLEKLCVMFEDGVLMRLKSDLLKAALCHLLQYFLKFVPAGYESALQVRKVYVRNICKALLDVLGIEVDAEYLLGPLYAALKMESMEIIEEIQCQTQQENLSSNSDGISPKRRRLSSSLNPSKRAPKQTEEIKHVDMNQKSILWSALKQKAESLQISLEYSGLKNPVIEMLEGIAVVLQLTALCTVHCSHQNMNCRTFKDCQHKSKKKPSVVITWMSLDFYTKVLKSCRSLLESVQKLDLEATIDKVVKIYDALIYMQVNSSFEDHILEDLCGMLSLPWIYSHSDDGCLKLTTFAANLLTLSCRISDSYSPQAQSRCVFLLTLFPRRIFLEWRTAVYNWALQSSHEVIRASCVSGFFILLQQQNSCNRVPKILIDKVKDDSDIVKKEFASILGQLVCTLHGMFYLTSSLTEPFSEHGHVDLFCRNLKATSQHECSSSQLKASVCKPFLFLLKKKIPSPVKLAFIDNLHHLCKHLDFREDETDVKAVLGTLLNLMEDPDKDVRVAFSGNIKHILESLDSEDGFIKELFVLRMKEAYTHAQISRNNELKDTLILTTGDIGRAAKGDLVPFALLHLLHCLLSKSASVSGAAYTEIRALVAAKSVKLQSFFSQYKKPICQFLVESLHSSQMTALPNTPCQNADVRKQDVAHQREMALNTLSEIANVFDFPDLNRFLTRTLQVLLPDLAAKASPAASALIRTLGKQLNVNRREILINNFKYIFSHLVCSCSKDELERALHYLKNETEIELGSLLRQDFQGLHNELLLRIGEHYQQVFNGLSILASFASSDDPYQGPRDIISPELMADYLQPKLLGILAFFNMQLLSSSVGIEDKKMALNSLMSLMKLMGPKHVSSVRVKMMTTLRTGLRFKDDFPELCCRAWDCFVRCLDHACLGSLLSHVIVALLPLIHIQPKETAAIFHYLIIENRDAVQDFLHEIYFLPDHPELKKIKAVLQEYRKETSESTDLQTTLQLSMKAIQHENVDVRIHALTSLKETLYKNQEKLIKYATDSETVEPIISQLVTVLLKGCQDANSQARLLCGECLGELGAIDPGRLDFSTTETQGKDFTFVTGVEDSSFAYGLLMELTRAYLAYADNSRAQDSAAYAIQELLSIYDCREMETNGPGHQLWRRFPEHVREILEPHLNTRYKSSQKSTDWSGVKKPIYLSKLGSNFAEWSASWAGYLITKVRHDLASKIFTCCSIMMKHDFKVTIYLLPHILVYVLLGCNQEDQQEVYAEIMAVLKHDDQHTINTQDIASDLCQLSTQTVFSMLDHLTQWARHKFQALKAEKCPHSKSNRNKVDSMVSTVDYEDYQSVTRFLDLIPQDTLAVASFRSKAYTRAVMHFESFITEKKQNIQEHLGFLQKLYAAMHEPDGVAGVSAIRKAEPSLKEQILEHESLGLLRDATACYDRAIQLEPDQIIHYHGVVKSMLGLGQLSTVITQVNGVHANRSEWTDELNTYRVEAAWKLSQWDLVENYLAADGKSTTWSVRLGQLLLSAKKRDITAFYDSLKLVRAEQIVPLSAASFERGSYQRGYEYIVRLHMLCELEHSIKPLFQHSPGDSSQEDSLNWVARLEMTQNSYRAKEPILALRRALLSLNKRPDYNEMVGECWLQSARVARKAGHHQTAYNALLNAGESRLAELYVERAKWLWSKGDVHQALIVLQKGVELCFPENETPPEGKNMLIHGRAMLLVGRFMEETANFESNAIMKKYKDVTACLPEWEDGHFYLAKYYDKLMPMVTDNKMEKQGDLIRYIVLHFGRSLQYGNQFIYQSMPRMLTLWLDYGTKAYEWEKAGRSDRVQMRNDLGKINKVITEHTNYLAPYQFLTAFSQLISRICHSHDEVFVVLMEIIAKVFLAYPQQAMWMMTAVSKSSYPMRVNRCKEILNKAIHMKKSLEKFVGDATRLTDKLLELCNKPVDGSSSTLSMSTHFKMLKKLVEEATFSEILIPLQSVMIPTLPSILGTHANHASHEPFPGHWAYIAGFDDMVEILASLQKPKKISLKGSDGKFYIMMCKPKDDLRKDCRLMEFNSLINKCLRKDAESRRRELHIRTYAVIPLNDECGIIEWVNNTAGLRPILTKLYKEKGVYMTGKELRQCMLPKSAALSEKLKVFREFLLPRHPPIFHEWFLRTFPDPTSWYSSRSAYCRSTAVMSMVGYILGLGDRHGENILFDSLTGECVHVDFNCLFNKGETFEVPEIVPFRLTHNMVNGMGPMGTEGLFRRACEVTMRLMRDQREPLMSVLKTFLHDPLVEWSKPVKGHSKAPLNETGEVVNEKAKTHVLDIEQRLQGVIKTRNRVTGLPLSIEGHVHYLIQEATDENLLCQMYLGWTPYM", "sequence (Q8WXE1 whole entry, further chain)": "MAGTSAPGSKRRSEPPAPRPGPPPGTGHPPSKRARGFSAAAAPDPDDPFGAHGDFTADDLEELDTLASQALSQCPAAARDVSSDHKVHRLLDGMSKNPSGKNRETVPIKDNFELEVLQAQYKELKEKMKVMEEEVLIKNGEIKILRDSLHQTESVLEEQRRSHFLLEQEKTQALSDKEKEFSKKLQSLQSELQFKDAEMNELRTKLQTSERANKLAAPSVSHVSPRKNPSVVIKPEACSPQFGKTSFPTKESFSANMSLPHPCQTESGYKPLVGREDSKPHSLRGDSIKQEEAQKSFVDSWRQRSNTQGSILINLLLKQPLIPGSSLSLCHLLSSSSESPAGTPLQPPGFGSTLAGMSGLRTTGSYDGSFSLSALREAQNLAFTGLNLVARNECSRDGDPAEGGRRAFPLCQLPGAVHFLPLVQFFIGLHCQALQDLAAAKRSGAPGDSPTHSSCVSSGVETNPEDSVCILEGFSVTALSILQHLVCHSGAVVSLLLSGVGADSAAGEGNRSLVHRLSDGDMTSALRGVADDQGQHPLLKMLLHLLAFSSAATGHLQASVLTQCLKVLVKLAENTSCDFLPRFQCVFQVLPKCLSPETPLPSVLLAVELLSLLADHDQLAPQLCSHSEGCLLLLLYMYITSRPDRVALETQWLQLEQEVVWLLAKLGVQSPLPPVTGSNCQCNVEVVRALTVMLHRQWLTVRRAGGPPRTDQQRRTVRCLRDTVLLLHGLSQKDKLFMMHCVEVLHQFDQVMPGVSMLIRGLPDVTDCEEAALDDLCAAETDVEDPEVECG", "assay": "Inhibition of ATR/ATRIP (unknown origin) using 5-FAM-AK-17 as substrate preincubated with compound for 10 mins followed by ATP addition and measured after 240 mins by mobility shift assay", "type": "protein-complex assay"}, "Granta-519 [1]": {"test_system": "Granta-519", "assay": "Induction of apoptosis in human Granta-519 cells assessed as viable cells at 2000 nM incubated for 48 hrs by Annexin-V-FITC/propidium iodide staining based flow cytometry (reference value: 92.7 %)", "type": "functional", "conditions": "read-out: Activity"}, "Granta-519 [2]": {"test_system": "Granta-519", "assay": "Antiproliferative activity against human Granta-519 cells assessed as inhibition of cell growth incubated for 72 hrs by MTS assay", "type": "functional, cell-based", "conditions": "Granta-519, 72 h"}, "A2780": {"test_system": "A2780", "assay": "Antiproliferative activity against human A2780 cells assessed as inhibition of cell growth incubated for 72 hrs by MTS assay", "type": "functional, cell-based", "conditions": "A2780, 72 h"}, "OCI-Ly10": {"test_system": "OCI-Ly10", "assay": "Antiproliferative activity against human OCI-Ly10 cells assessed as inhibition of cell growth incubated for 72 hrs by MTS assay", "type": "functional, cell-based", "conditions": "OCI-Ly10, 72 h"}, "LoVo": {"test_system": "LoVo", "assay": "Antiproliferative activity against human LoVo cells assessed as inhibition of cell growth incubated for 72 hrs by MTS assay", "type": "functional, cell-based"}, "HCT-116": {"test_system": "HCT-116", "assay": "Antiproliferative activity against human HCT-116 cells assessed as inhibition of cell growth incubated for 72 hrs by MTS assay", "type": "functional, cell-based", "conditions": "HCT-116, 72 h"}, "NCI-H446": {"test_system": "NCI-H446", "assay": "Antiproliferative activity against human NCI-H446 cells assessed as inhibition of cell growth incubated for 72 hrs by MTS assay", "type": "functional, cell-based", "conditions": "NCI-H446, 72 h"}, "HT-29": {"test_system": "HT-29", "assay": "Antiproliferative activity against human HT-29 cells assessed as inhibition of cell growth incubated for 72 hrs by MTS assay", "type": "functional, cell-based", "conditions": "HT-29, 72 h"}, "SUD4": {"test_system": "SUD4", "assay": "Antiproliferative activity against human SU-DHL-4 cells assessed as inhibition of cell growth incubated for 72 hrs by MTS assay", "type": "functional, cell-based", "conditions": "SU-DHL-4, 72 h"}, "DLD-1": {"test_system": "DLD-1", "assay": "Antiproliferative activity against human DLD-1 cells assessed as inhibition of cell growth incubated for 72 hrs by MTS assay", "type": "functional, cell-based", "conditions": "DLD-1, 72 h"}, "CAPAN-1": {"test_system": "CAPAN-1", "assay": "Antiproliferative activity against human CAPAN-1 cells assessed as inhibition of cell growth incubated for 72 hrs by MTS assay", "type": "functional, cell-based", "conditions": "CAPAN-1, 72 h"}, "PC-3": {"test_system": "PC-3", "assay": "Antiproliferative activity against human PC-3 cells assessed as inhibition of cell growth incubated for 72 hrs by MTS assay", "type": "functional, cell-based", "conditions": "PC-3, 72 h"}, "Granta-519 [3]": {"test_system": "Granta-519", "assay": "Induction of cell cycle arrest in human Granta-519 cells assessed as accumulation of cells at G1 phase at 2000 nM incubated for 24 hrs by propidium iodide staining based flow cytometry (reference value: 45.83 %)", "type": "functional"}, "Granta-519 [4]": {"test_system": "Granta-519", "assay": "Induction of cell cycle arrest in human Granta-519 cells assessed as accumulation of cells at S phase at 2000 nM incubated for 24 hrs by propidium iodide staining based flow cytometry (reference value: 44.81 %)", "type": "functional"}, "Granta-519 [5]": {"test_system": "Granta-519", "assay": "Induction of apoptosis in human Granta-519 cells assessed as early apoptotic cells at 2000 nM incubated for 48 hrs by Annexin-V-FITC/propidium iodide staining based flow cytometry (reference value: 3.75 %)", "type": "functional"}, "Granta-519 [6]": {"test_system": "Granta-519", "assay": "Induction of apoptosis in human Granta-519 cells assessed as late apoptotic cells at 2000 nM incubated for 48 hrs by Annexin-V-FITC/propidium iodide staining based flow cytometry (reference value: 3.07 %)", "type": "functional"}, "Granta-519 [7]": {"test_system": "Granta-519", "assay": "Induction of apoptosis in human Granta-519 cells assessed as necrotic cells at 2000 nM incubated for 48 hrs by Annexin-V-FITC/propidium iodide staining based flow cytometry (reference value: 0.429 %)", "type": "functional"}}}
{"smiles": "C[C@@H]1COCCN1c1nc(-c2cncc3ccccc23)nc2c1ccn2S(C)(=O)=O", "values": [{"measurement": "IC50", "setting": "ATR/ATRIP", "value": 46.9, "unit": "nM"}]}
{"smiles": "C[C@@H]1COCCN1c1nc(-c2cccc3[nH]ccc23)nc2c1CS(=O)(=O)C2", "values": [{"measurement": "IC50", "setting": "ATR/ATRIP", "value": 32.1, "unit": "nM"}]}
{"smiles": "C[C@@H]1COCCN1c1nc(-c2cccc3[nH]ccc23)nc2c1cnn2S(C)(=O)=O", "values": [{"measurement": "IC50", "setting": "ATR/ATRIP", "value": 5.8, "unit": "nM"}]}
{"smiles": "C[C@@H]1COCCN1c1cc(C2CCCS2(=O)=O)nc(-c2cccc3[nH]ccc23)n1", "note": "(stereo partly drawn)", "values": [{"measurement": "IC50", "setting": "ATR/ATRIP", "value": 9.4, "unit": "nM"}]}
{"smiles": "C[C@@H]1COCCN1c1nc(-c2cccc3sccc23)nc2c1ccn2S(C)(=O)=O", "values": [{"measurement": "IC50", "setting": "ATR/ATRIP", "value": 28, "unit": "nM"}]}
{"smiles": "C[C@@H]1COCCN1c1cc(N(C2CC2)S(C)(=O)=O)nc(-c2cccc3[nH]ccc23)n1", "values": [{"measurement": "IC50", "setting": "ATR/ATRIP", "value": 3.3, "unit": "nM"}]}
{"smiles": "C[C@@H]1COCCN1c1nc(-c2cccc3[nH]ccc23)nc2c1ccn2S(=O)(=O)N(C)C", "values": [{"measurement": "IC50", "setting": "ATR/ATRIP", "value": 5.3, "unit": "nM"}]}
{"smiles": "C[C@@H]1COCCN1c1nc(-c2cccc3[nH]ccc23)nc2c1ccn2S(C)(=O)=O", "values": [{"measurement": "IC50", "setting": "ATR/ATRIP", "value": 2.3, "unit": "nM"}]}
{"smiles": "C[C@@H]1COCCN1c1nc(-c2cc(Cl)cc3[nH]ccc23)nc2c1ccn2S(C)(=O)=O", "values": [{"measurement": "IC50", "setting": "ATR/ATRIP", "value": 4.4, "unit": "nM"}]}
{"smiles": "CCS(=O)(=O)n1ccc2c(N3CCOC[C@H]3C)nc(-c3cccc4[nH]ccc34)nc21", "values": [{"measurement": "IC50", "setting": "ATR/ATRIP", "value": 4.3, "unit": "nM"}]}
{"smiles": "C[C@@H]1COCCN1c1nc(-c2cccc3[nH]ccc23)nc2c1ccn2S(=O)(=O)c1cccs1", "values": [{"measurement": "IC50", "setting": "ATR/ATRIP", "value": 84.9, "unit": "nM"}]}
{"smiles": "C[C@@H]1COCCN1c1cc(C2(S(C)(=O)=O)CC2)nc(-c2cccc3[nH]ccc23)n1", "values": [{"measurement": "viability at 2 µM", "setting": "Granta-519 [1]", "value": 80.6, "unit": "%"}, {"measurement": "IC50", "setting": "Granta-519 [2]", "value": 500, "unit": "nM"}, {"measurement": "IC50", "setting": "A2780", "value": 460, "unit": "nM"}, {"measurement": "IC50", "setting": "OCI-Ly10", "value": 1030, "unit": "nM"}, {"measurement": "IC50", "setting": "LoVo", "value": 850, "unit": "nM"}, {"measurement": "IC50", "setting": "HCT-116", "value": 1470, "unit": "nM"}, {"measurement": "IC50", "setting": "NCI-H446", "value": 3900, "unit": "nM"}, {"measurement": "IC50", "setting": "HT-29", "value": 2940, "unit": "nM"}, {"measurement": "IC50", "setting": "SUD4", "value": 2380, "unit": "nM"}, {"measurement": "IC50", "setting": "DLD-1", "value": 3470, "unit": "nM"}, {"measurement": "IC50", "setting": "CAPAN-1", "value": 7050, "unit": "nM"}, {"measurement": "IC50", "setting": "PC-3", "value": 8430, "unit": "nM"}, {"measurement": "Activity", "setting": "Granta-519 [3]", "value": 35.65, "unit": "%"}, {"measurement": "Activity", "setting": "Granta-519 [4]", "value": 61.62, "unit": "%"}, {"measurement": "Activity", "setting": "Granta-519 [5]", "value": 9.18, "unit": "%"}, {"measurement": "Activity", "setting": "Granta-519 [6]", "value": 9.46, "unit": "%"}, {"measurement": "Activity", "setting": "Granta-519 [7]", "value": 0.742, "unit": "%"}]}
{"smiles": "C[C@@H]1COCCN1c1nc(-c2cccc3occc23)nc2c1ccn2S(C)(=O)=O", "values": [{"measurement": "IC50", "setting": "ATR/ATRIP", "value": 684, "unit": "nM"}]}
{"smiles": "C[C@@H]1COCCN1c1nc(-c2cccc3[nH]ccc23)nc2c1ccn2S(=O)(=O)c1ccccc1", "values": [{"measurement": "IC50", "setting": "ATR/ATRIP", "value": 270, "unit": "nM"}]}
{"smiles": "C[C@@H]1COCCN1c1nc(-c2cccc3[nH]ccc23)nc2c1ccn2S(=O)(=O)C1CCCCC1", "values": [{"measurement": "IC50", "setting": "ATR/ATRIP", "value": 205, "unit": "nM"}]}
{"smiles": "CC(C)N(c1cc(N2CCOC[C@H]2C)nc(-c2cccc3[nH]ccc23)n1)S(C)(=O)=O", "values": [{"measurement": "IC50", "setting": "ATR/ATRIP", "value": 7.8, "unit": "nM"}]}
{"smiles": "COc1cc(-c2nc(N3CCOC[C@H]3C)c3ccn(S(C)(=O)=O)c3n2)c2cc[nH]c2c1", "values": [{"measurement": "IC50", "setting": "ATR/ATRIP", "value": 5.3, "unit": "nM"}]}
{"smiles": "C[C@@H]1COCCN1c1nc(-c2cccc3[nH]ccc23)nc2c1ccn2S(=O)(=O)c1ccc(-c2ccccc2)cc1", "values": [{"measurement": "IC50", "setting": "ATR/ATRIP", "value": 10200, "unit": "nM"}]}
{"smiles": "C[C@@H]1COCCN1c1nc(-c2ccc3[nH]cnc3c2)nc2c1ccn2S(C)(=O)=O", "values": [{"measurement": "IC50", "setting": "ATR/ATRIP", "value": 245, "unit": "nM"}]}
{"smiles": "CC(C)S(=O)(=O)n1ccc2c(N3CCOC[C@H]3C)nc(-c3cccc4[nH]ccc34)nc21", "values": [{"measurement": "IC50", "setting": "ATR/ATRIP", "value": 8, "unit": "nM"}]}
{"smiles": "Cc1ccc(S(=O)(=O)n2ccc3c(N4CCOC[C@H]4C)nc(-c4cccc5[nH]ccc45)nc32)cc1", "values": [{"measurement": "IC50", "setting": "ATR/ATRIP", "value": 3670, "unit": "nM"}]}
{"smiles": "C[C@@H]1COCCN1c1cc(N2CCCS2(=O)=O)nc(-c2cccc3[nH]ccc23)n1", "values": [{"measurement": "IC50", "setting": "ATR/ATRIP", "value": 43.5, "unit": "nM"}]}
{"smiles": "C[C@@H]1COCCN1c1nc(-c2cccc3ccccc23)nc2c1ccn2S(C)(=O)=O", "values": [{"measurement": "IC50", "setting": "ATR/ATRIP", "value": 39.5, "unit": "nM"}]}
{"smiles": "C[C@@H]1COCCN1c1cc(C2(S(=O)(=O)N(C)C)CC2)nc(-c2cccc3[nH]ccc23)n1", "values": [{"measurement": "IC50", "setting": "ATR/ATRIP", "value": 746, "unit": "nM"}]}
{"smiles": "C[C@@H]1COCCN1c1nc(-c2cc(C(F)(F)F)cc3[nH]ccc23)nc2c1ccn2S(C)(=O)=O", "values": [{"measurement": "IC50", "setting": "ATR/ATRIP", "value": 9.2, "unit": "nM"}]}
{"smiles": "C[C@@H]1COCCN1c1nc(-c2ccc3nccn3c2)nc2c1ccn2S(C)(=O)=O", "values": [{"measurement": "IC50", "setting": "ATR/ATRIP", "value": 625, "unit": "nM"}]}
{"smiles": "C[C@@H]1COCCN1c1nc(-c2cc(C#N)cc3[nH]ccc23)nc2c1ccn2S(C)(=O)=O", "values": [{"measurement": "IC50", "setting": "ATR/ATRIP", "value": 9.4, "unit": "nM"}]}
{"smiles": "C[C@@H]1COCCN1c1nc(-c2ccnc3cccnc23)nc2c1ccn2S(C)(=O)=O", "values": [{"measurement": "IC50", "setting": "ATR/ATRIP", "value": 3690, "unit": "nM"}]}
{"smiles": "C[C@@H]1COCCN1c1nc(-c2ccc3[nH]ccc3c2)nc2c1ccn2S(C)(=O)=O", "values": [{"measurement": "IC50", "setting": "ATR/ATRIP", "value": 53.1, "unit": "nM"}]}
{"smiles": "C[C@@H]1COCCN1c1nc(-c2cccc3[nH]ccc23)nc2c1ccn2S(=O)(=O)C1CC1", "values": [{"measurement": "IC50", "setting": "ATR/ATRIP", "value": 3.8, "unit": "nM"}]}
{"smiles": "C[C@@H]1COCCN1c1cc(C2CCCCS2(=O)=O)nc(-c2cccc3[nH]ccc23)n1", "note": "(stereo partly drawn)", "values": [{"measurement": "IC50", "setting": "ATR/ATRIP", "value": 7.8, "unit": "nM"}]}
{"smiles": "C[C@@H]1COCCN1c1nc(-c2cnc3ccccc3c2)nc2c1ccn2S(C)(=O)=O", "values": [{"measurement": "IC50", "setting": "ATR/ATRIP", "value": 630, "unit": "nM"}]}
